Results from article PMC7326984, “Synthesis, in vitro urease inhibitory potential and molecular docking study of benzofuran-based-thiazoldinone analogues” (Scientific Reports, 2020).

Molecular target: urease enzyme (Canavalia ensiformis, UniProt P07374)
Type: biochemical
Conditions: read-out: IC50 values (urease inhibition); indophenol method, pH 6.8, 30 °C, 15 min incubation, triplicate; thiourea as standard
Method: 25 µL of enzyme and 55 µL of buffer was added to 100 mM urea that were incubated with test scaffolds 5 µL (0.5 mM concentration) for 15 min at 30 °C in 96-well plates. Urea concentrations were changed from 2–24 mM to study kinetics. As described by Weatherburn the urease potential was assessed by measuring the ammonia production with using indophenol method. Concisely, 70 µL of alkali reagent (0.1% active chloride NaOCl and 0.5 w/v NaOH) and 45 µL of reagent phenol (0.005% w/v sodium nitroprusside and 1% w/v phenol) were added to each and every well plate. Using microplate reader (Molecular Device, USA) the increase in absorbance at 630 nm was measured after 50 min. Using 200 µL as final volume the reading was performed as triplicate. With help of SoftMaxPro software (Molecular Device, USA) the results (per min absorbance change) were calculated. At pH 6.8 the entire assay was performed. With the help of 100 − (ODtest well/ODcontrol) × 100 the percentage inhibition was calculated.

Sequence of urease enzyme (P07374 whole entry, looked up): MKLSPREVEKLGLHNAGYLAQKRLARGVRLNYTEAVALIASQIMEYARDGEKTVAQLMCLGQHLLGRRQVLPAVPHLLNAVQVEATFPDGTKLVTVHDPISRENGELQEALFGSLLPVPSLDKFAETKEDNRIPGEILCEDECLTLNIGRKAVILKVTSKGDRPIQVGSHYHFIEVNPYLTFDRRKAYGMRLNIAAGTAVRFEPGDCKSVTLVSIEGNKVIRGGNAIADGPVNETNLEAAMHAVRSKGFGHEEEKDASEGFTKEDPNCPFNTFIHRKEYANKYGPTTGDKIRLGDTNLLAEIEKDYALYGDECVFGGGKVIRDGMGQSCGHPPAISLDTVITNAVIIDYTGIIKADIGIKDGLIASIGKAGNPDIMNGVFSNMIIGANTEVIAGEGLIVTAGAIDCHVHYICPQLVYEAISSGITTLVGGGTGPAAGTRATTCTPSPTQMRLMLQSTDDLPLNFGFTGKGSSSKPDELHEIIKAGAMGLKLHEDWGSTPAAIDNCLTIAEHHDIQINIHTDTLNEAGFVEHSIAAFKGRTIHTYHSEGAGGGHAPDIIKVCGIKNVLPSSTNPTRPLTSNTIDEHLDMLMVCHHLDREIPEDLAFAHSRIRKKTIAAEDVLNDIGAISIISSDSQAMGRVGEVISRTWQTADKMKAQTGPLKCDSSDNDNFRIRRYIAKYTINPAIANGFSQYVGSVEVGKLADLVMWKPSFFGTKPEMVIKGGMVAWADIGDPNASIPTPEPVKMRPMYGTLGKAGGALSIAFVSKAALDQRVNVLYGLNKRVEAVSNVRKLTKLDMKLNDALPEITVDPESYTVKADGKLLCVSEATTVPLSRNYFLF

SMILES: O=C(NN1C(=O)SCC1c1ccc(Cl)cc1Cl)c1cc2c(F)cc([N+](=O)[O-])cc2o1 (stereo not shown) [Compound 8, N-(4-(2,4-dichlorophenyl)-2-oxothiazolidin-3-yl)-4-fluoro-6-nitrobenzofuran-2-carboxamide]
- IC50: 2900 ± 10 nM
